The record followed here is patent US20040235761A1, “Novel virus proliferaton inhibition/virucidal method and novel pyradine nucleotide/pyradine nucleoside analogue” (priority 2001, published 2004).

The test system of data set [1] is MDCK cells. The data set is described as follows: Detection of phosphate compound in cell (Test Example 1). Type of data set: in vitro ADME. As to conditions: 35° C., 20 hours, HPLC with radioactivity detector. How it is done:
5 ml of an E′-MEM culture medium (containing 1% bovine serum albumin and 3% vitamin solution) containing a compound, 6-fluoro-3-hydroxy-2-[2-^14C]pyrazinecarboxamide, which ha-d been ^14C-labeled at position 2 of the pyrazine ring, was added to MDCK cells that had been monolayer-cultured on a 55 cm^2 culture plate. After completion of culture under conditions of 35° C. and 5% CO2 for 20 hours, 6-fluoro-3-hydroxy-2-[2-^14C]pyrazinecarboxamide and a converted compound were extracted from cell fractions, using a 66.6% acetonitrile solution. The extract was lyophilized and concentrated, and then analysis was carried out under the HPLC analysis conditions indicated below.

The test system of data set [2] is MDCK cells. Description: Detection of deprotected compound in cell (Test Example 2). Format: in vitro ADME. As to conditions: 37° C., 1 hour, HPLC. The procedure:
The compound of Example 2 was added to MDCK cells suspended in a Hank's balanced salt solution, and the mixture was incubated at 37° C. for 1 hour. Thereafter, the obtained product was layered on silicon oil (KF-99), followed by centrifugation at 4° C. Cell fractions from the precipitate were suspended and frozen-thawed in a mobile phase indicated below, and the obtained solution was analyzed under the HPLC analysis conditions indicated below.

The subject of data set [3] is bovine diarrhea virus (BVDV) NADL. The data set is described as follows: Anti-BVDV effect (plaque inhibition in MDBK cells). Type of data set: cell-based. As to conditions: Bovine viral diarrhea virus isolates and strains, 72 h, 100 μg/mL test compound, 70 PFU/well, 3 days, read-out: Inhibition rate (plaque inhibition rate). The procedure: MDBK cells that had fully grown in a 6-well culture plate were infected with bovine diarrhea virus (BVDV) NADL at 70 PFU/well. After 60 minutes, the infection solution was removed, and a test culture solution (E′-MEM) containing 5% horse serum and 1% agar (SeaPlaque Agar) that contained a 100 μg/mL test compound was added thereto. The mixture was fully solidified and then cultured for 3 days under conditions of 37° C., a humidity of 100% and 5% CO2. After completion of the culture, the test plate was fixed with a 3% formaldehyde solution, and the agar medium was removed with running water, followed by staining with a 1% crystal violet solution, so as to count the number of plaques. The plaque inhibition rate was expressed by the percentage obtained by comparing with a control to which no test compounds were added.

For data set [4], the system named is influenza virus A/PR/8/34. Description: Anti-influenza effect (plaque inhibition in MDCK cells). Type of data set: cell-based. As to conditions: PR/8, MDCK, 72 h, read-out: Inhibition rate (plaque inhibition rate).
Data set [5] is described as follows: Stability during the process of pharmaceutical preparation. As to conditions: compared with anhydrides. Type of data set: physicochemical.
Another data set has as its system MDBK cells. The data set is described as follows: Detection of triphosphate compound in cell by addition of compound A. As to conditions: 37° C., 24 hours. Format: in vitro ADME. The procedure: 10 ml of an E′-MEM culture medium (containing 0.5% fetal bovine serum) containing compound A was added to MDBK cells that had been monolayer-cultured on a 55 cm^2 culture plate. After completion of culture under conditions of 37° C. and 5% CO2 for 24 hours, the culture was removed using a cell scraper, and the culture medium was removed by centrifugation. Thereafter, 5% trichloroacetic acid was added to the obtained cell fractions, so that a converted compound was extracted. An equal amount of 20% trioctylamine-containing pentane was added to the extract, and the obtained water layer was then concentrated using a centrifugal concentrator. In the above concentrate, a component whose HPLC retention time matches that of a synthetic compound of triphosphates (a compound obtained in Reference Example 22) was detected.

The conditions of data set [6]: mouse, in vivo, 300 mg/kg. The procedure: Compound A was administered into the caudal vein of a mouse at a dose of 300 mg/kg. 30 minutes after the administration, 1.6 g of the liver was excised, and it was then ground under ice cooling, while adding thereto 22.5 mL of 70% methanol that had been cooled to −20° C., so that compound A and a phosphate(s) form were extracted. 10 mL of the supernatant of the extract centrifuged at 4° C. for 10 minutes was purified under the condition indicated below, using a solid extraction cartridge (Varian BOND ELUT SAX HF 2 g/12 mL; eluted with 0.01 M to 1.0 M KCl) pretreated with 12 mL of methanol and 12 mL each of 1.0 M and 0.005 M KCl.
The phosphate form contained in 5 mL of No. 3 0.05 M KCl eluate and a synthetic monophosphate compound (a compound obtained in Reference Example 30) were identical in terms of HPLC retention time and UV spectrum in HPLC analysis (HPLC-1) described in HPLC conditions. In addition, the phosphate form contained in 5 mL of No. 1 0.5 M KCl eluate and a synthetic diphosphate compound (a compound obtained in Reference Example 31) were identical in terms of HPLC retention time in HPLC analysis (HPLC-2) described in HPLC conditions. […]

The target in data set [7] is T1, Influenza virus polymerase (crude enzyme from virus particles) (Influenza A virus, UniProt P03431).
T1 construct: these particles were used as polymerase crude enzymes; from tissue; host or cells: influenza virus particles lysed with Triton N101/LPC (crude enzyme)
T1 sequence (P03431 whole entry, looked up): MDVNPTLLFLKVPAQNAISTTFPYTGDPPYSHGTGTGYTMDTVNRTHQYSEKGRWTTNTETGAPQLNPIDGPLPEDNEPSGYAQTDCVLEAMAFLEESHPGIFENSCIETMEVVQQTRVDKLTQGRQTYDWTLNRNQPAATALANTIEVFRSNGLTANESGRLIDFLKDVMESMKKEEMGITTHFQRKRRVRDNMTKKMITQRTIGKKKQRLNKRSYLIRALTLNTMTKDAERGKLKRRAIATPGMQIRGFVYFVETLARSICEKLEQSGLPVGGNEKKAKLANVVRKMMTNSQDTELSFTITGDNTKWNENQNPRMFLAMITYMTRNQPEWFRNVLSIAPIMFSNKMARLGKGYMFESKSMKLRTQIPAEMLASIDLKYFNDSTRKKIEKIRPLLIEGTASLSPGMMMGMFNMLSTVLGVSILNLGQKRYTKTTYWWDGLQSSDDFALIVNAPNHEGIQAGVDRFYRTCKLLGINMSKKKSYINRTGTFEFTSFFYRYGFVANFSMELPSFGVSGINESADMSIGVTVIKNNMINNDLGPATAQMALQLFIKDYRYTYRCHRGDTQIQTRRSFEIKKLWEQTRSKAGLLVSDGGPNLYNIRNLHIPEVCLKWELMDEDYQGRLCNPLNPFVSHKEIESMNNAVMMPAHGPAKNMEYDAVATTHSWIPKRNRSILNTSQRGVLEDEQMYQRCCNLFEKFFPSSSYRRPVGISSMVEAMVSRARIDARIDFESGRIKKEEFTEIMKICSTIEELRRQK
The data set is described as follows: Polymerase inhibition test (influenza virus). Format: biochemical. The conditions noted are these: 30° C., 60 minutes, 32P-GTP incorporation, read-out: 50% inhibition concentration. The procedure: Influenza virus particles were treated with a dissolving solution (100 mM Tris-HCl (pH 8), 100 mM KCl, 5 mM MgCl2, 1.5 mM DTT, 5% glycerol, 1.5% Triton N101, 1% LPC), and these particles were used as polymerase crude enzymes. Each of the test compounds with different concentrations was added to a reaction buffer (100 mM Tris-HCl (pH 8.0), 100 mM KCl, 5 mM MgCl2, 1 mM DTT, 0.25% Triton N101, 0.25 mM ApG, 0.1 mM ATP, 0.05 mM CTP, 0.05 mM UTP, 0.0005 mM GTP, ^32P-GTP, crude enzyme), followed by incubation at 30° C. for 60 minutes. Thereafter, 10% trichloroacetic acid (TCA) was added thereto, and the mixture was retained on ice for 60 minutes. Thereafter, it was dropped on a GF/C filter, and the filter was then washed with 5% TCA. The filter was dried, and scintillation cocktail was added thereto. The radioactivity was determined using a liquid scintillation counter. The measurement value was given as a 50% inhibition concentration, providing that a group in which no test compounds were added was defined as 100%.

Data set [8] has as its target human RNA polymerase (Hela cell nucleus extract) (Homo sapiens, UniProt P24928+P30876). Description: Human RNA polymerase inhibition test. Type of data set: biochemical. As to conditions: 30° C., 1 hour, read-out: 50% inhibition concentration. How it is done:
A Hela cell nucleus extract (Promega) was used as human RNA polymerase for the test. The pCMP script was cleaved with restriction enzymes and then purified, and it was used as a DNA template for the test.
Each of the test compounds with different concentrations was added to a reaction buffer (Hela cell nucleus extract, 3 mM MgCl2, 0.4 mM each of ATP, UTP and CTP, 0.016 mM GTP, 16 μg/mL DNA template, 0.4 mCi/mL [α-^32P]GTP), followed by incubation at 30° C. for 1 hour. After completion of the reaction, the reaction solution was dropped on a DE81 filter, and the filter was then washed with 5% Na2HPO4 solution 3 times for 30 minutes, and then with distilled water once for 1 minute. The filter was dried, and scintillation cocktail was added thereto. The radioactivity was determined using a liquid scintillation counter. The measurement value was given as a 50% inhibition concentration, providing that a group in which no test compounds were added was defined as 100%.

Data set [9] deals with T2, HCV polymerase (NS5B region of hepatitis C virus) (Hepatitis C virus genotype 1a, UniProt P27958).
T2 construct: The NS5B region of hepatitis C virus was produced in Escherichia coli; made in house; host or cells: Escherichia coli
T2 sequence (P27958 2421-3011): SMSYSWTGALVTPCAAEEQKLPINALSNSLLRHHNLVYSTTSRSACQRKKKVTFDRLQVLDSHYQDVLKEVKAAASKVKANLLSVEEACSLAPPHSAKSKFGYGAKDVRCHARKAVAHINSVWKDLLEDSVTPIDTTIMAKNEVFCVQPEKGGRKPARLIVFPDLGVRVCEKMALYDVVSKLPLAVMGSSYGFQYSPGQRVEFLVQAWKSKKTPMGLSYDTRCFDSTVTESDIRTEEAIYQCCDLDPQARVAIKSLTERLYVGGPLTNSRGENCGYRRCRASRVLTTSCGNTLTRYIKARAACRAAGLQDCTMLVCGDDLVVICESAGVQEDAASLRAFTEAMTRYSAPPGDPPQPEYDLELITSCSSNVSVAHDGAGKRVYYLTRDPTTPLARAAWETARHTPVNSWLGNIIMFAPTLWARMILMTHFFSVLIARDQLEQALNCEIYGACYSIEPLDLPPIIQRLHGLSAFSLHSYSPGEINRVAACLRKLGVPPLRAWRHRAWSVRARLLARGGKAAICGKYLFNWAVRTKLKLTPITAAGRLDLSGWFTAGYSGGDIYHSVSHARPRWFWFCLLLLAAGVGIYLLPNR
The data set is described as follows: Polymerase inhibition test (hepatitis C virus). Type of data set: biochemical. The conditions noted are these: NS5B produced in Escherichia coli, 30° C., 2 hours; read-out: 50% inhibition concentration. The procedure:
The NS5B region of hepatitis C virus was produced in Escherichia coli, and it was used as HCV polymerase for the test. The sequence of the 3′-region of HCV was prepared by the in vitro transcription method, and it was used as an RNA template for the test.
Each of the test compounds with different concentrations was added to a reaction buffer (20 mM Tris-HCl (pH 8.0), 0.05 mM MnCl2, 1 mM DTT, 20 units RNase inhibitor, [α-^32P]GTP, 0.05 mM each of ATP, CTP and UTP, and 2 μg/mL RNA template), followed by incubation at 30° C. for 2 hours. Thereafter, 10% TCA was added to terminate the reaction. Thereafter, the reaction solution was dropped on a DE81 filter, and the filter was then washed with 5% TCA. The filter was dried, and scintillation cocktail was added thereto. The radioactivity was determined using a liquid scintillation counter. The measurement value was given as a 50% inhibition concentration, providing that a group in which no test compounds were added was defined as 100%.

Where only a bound is given, the exact number is not on record here.

As to `NC(=O)[14c]1nc(F)cnc1O` [6-fluoro-3-hydroxy-2-[2-^14C] pyrazinecarboxamide], in the data set with MDCK cells [1], the “monophosphate (Reference Example 15) and triphosphate (Reference Example 16) in cell fractions” value was “detected”.

In the case of `CC(C)(C)C(=O)SCCOP(=O)(OCCSC(=O)C(C)(C)C)OC[C@H]1O[C@@H](n2ccnc(C(N)=O)c2=O)[C@H](O)[C@@H]1O` [Example 2, 2,2-dimethyl-thiopropionic acid S-(2-[[(2R,3S,4R,5R)-5-(3-carbamoyl-2-oxo-2H-pyrazine-1-yl)-3,4-dihydroxy-tetrahydro-furan-2-ylmethoxy]-[2-(2,2-dimethyl-propionylsulfanyl)-ethoxy]-phosphoryloxy]-ethyl) ester], the “monophosphate as deprotected compound in cell fractions” value with MDCK cells [2] is given as “detected”. In addition, the inhibition at 100 µg/mL in data set [3] and in data set [4] was 100% throughout.

As to `NC(=O)c1nccn([C@@H]2O[C@H](CO)[C@@H](O)[C@H]2O)c1=O.O` [Example 29 (2), 4-[(2R,3R,4S,5R)-3,4-dihydroxy-5-(hydroxymethyl)tetrahydro-2-furanyl]-3-oxo-3,4-dihydro-2-pyrazinecarboxamide monohydrate], the “stability during the process of pharmaceutical preparation” value in [5] was “excellent stability”.

`NC(=O)c1nccn([C@@H]2O[C@H](CO)[C@@H](O)[C@H]2O)c1=O` [Example 29, 4-[(2R,3R,4S,5R)-3,4-dihydroxy-5-(hydroxymethyl)tetrahydro-2-furanyl]-3-oxo-3,4-dihydro-2-pyrazinecarboxamide]: the “component whose HPLC retention time matches the synthetic triphosphate (Reference Example 22) in cell extract” value in the data set with MDBK cells is listed as “detected”. In addition, the “conversion into phosphate forms in the liver” value in data set [6] is “converted in vivo into a monophosphate, then into a diphosphate form, and then into a triphosphate”. The inhibition at 100 µg/mL in [3] and in [4] was 100% throughout.

Turning to `NC(=O)c1nccn([C@@H]2O[C@H](COP(=O)(O)OP(=O)(O)OP(=O)(O)O)C[C@H]2O)c1=O` [Reference Example 25, {(2S,4R,5R)-5-[3-(aminocarbonyl)-2-oxo-1(2H)-pyrazinyl]-4-hydroxytetrahydro-2-furanyl} methyl triphosphate], the IC50 in [7] was 28 µM; in [8], more than 200 µM; in [9], 1.6 µM.
